In patent US20240197897A1, “HETEROTANDEM BICYCLIC PEPTIDE COMPLEXES” (Bicycle Tx Limited, priority 2021, published 2024):
Starred links: 1 amine or outer side, 2 acyl side, 3 side chain; linkers in the order of their positions; H or OH if unused. Positions of bridges follow the written chain, without caps; N, C: chain ends. Non-standard residues stand in square brackets, D forms with d. Residues, ends and D or L forms follow the SMILES beside them. Chains are numbered I, II in the order given. No end group written: not given here. *: point of attachment. TATA = O=C(CC[*:1])N1CN(C(=O)CC[*:2])CN(C(=O)CC[*:3])C1; X2 = O=C(CCOCCOCCOCCOCCOCCn1cc(CCC(=O)[*:2])nn1)[*:1]; Hyp = O=C(O)[C@@H]1C[C@@H](O)CN1; hArg = N=C(N)NCCCC[C@H](N)C(=O)O; Cba = N[C@@H](CC1CCC1)C(=O)O; Pent4ynoyl = C#CCCC(=O)*

What was measured:
[1] = NK cytotoxicity assay (NK:HT1080-luc co-culture, luciferase readout); format: cell-based, human; conditions: NK:HT1080-luc co-culture, 24 hours, four-parameter logistic regression; FIGS. 2-4, 6-8, 10; read-out: EC50 NK cytotoxicity (tumor cell killing)
Description: (§1) Heterotandem bicyclic peptide complexes were evaluated for NK functional readouts (cytotoxicity and cytokine secretion) in NK-tumor cell line co-cultures.
(§2) NK cells were isolated using a negative isolation kit (STEMCELL™ Technologies 17955) from the total PBMC population purified from whole blood. NK cell pellet was then resuspended in DMEM medium (Corning™ 10-013-CV) with 10% heat-inactivated fetal bovine serum (FBS; Corning® 35-011-CV), 10 mM HEPES (Gibco™ 15-630-080), and 1% Penicillin Streptomycin (Corning™ 30-002-CI), and 50 IU/mL human IL-2 (Miltenyi Biotec® 130-097-748), at a concentration of 4×10^5 cells/mL. For the NK cell cytotoxicity assays, 50 μL (2×10^4) of cell suspension was plated in the 96-well plate (Grenier® Bio One™ 655090) containing 50 μl (4×10^3) HT1080-luc cells (ATCC® CCL-121-luc2) in DMEM (Gibco™ 11875-093; with L-glutamine) with 10% heat-inactivated fetal bovine serum (FBS; Corning® 35-011-CV), 10 mM HEPES (Gibco™ 15-630-080), and 1% Penicillin Streptomycin (Corning™ 30-002-CI). […] The plates were then incubated for 24 hours at 37° C., 5% CO2. Post-incubation, plates was centrifuged at 250×g for 5 minutes and 100 μl supernatant discarded. Samples were then incubated 10 minutes with 50 μl Bright-Glo™ Luciferase Assay system (Promega™ E2620). Luminescence upon excitation at 570 nm was read using a CLARIOstar® plate-reader with MARS Data Analysis Software™. Data was fit to a four-parameter non-linear regression in GraphPad Prism™ 8.0.2 to generate an EC50 value.

[2] = system: HT1080-luc cells; assay: as above; format: cell-based, human; conditions: in comparison to NK:HT1080-luc co-culture without heterotandem complex (NK-TICA)
Description: as §1, §2

[3] = system: NK cells co-cultured with the HT1080-luc tumor cell line; assay: Cytokine secretion assay (IFN-gamma, TNF-alpha; NK:HT1080-luc co-culture); format: cell-based, human; conditions: for TNF-alpha and IFN-gamma production from NK cells: 2 nM construct, Luminex, FIG. 11
Description: as §1
NK cells were isolated using a negative isolation kit (STEMCELL Technologies® 17955) from the total PBMC population purified from whole blood. NK cell pellet was then resuspended in DMEM medium (Corning™ 10-013-CV) with 10% heat-inactivated fetal bovine serum (FBS; Corning® 35-011-CV), 10 mM HEPES (Gibco™ 15-630-080), and 1% Penicillin Streptomycin (Corning™ 30-002-CI), and 50 IU/mL human IL-2 (Miltenyi Biotec® 130-097-748), at a concentration of 4×10^5 cells/mL. For the NK cell cytokine secretion assay, […] NK cell in 50 μl cell suspension were plated in the 96-well U-bottom plate (Grenier Bio One™ 650180) containing 50 μl (4×10^4) HT1080-luc cells (ATCC® CCL-121-luc2) in DMEM (Gibco™ 11875-093; with L-glutamine) with 10% heat-inactivated fetal bovine serum (FBS; Corning® 35-011-CV), 10 mM HEPES (Gibco™ 15-630-080), and 1% Penicillin Streptomycin (Corning™ 30-002-CI). […] The plates were then incubated for 4 hours at 37° C., 5% CO2. Post-incubation, plates was centrifuged at 250×g for 5 minutes and 100 μl supernatant harvested. Samples were immediately stored at −20° C. or assessed for cytokine levels. Interferon-gamma or TNF-alpha levels were measured in 50 μl of collected supernatants through the Human IFN-gamma Quantikine™ ELISA kit (R&D Systems DIF50C) or Human TNF-alpha Quantikine™ ELISA kit (R&D Systems DTAOOD). Data was acquired at wavelength of 450 nm on CLARIOstar® plate-reader and was fit to a four-parameter non-linear regression in CLARIOstar® plate reader MARS Data Analysis™ software and analyzed with GraphPad Prism™ 8.0.2 software to quantify to cytokine levels. Alternatively, TNF-alpha and IFN-gamma cytokine were measured from 25 μl of collected supernatant by Luminex Assay: Human XL Cytokine Discovery Premixed Kit (R&D Systems, FCS™ 18-05) Luminex 200™ flow instrument and xPONENT™ analysis software.

[4] = target: EPH receptor A2 (ephrin type-A receptor 2) (human) (UniProt P29317); assay: cell-based or functional assay
[5] = target: NKp46 (human) (UniProt O76036); assay: cell-based or functional assay
Chain of NKp46 (human) (O76036 22-304): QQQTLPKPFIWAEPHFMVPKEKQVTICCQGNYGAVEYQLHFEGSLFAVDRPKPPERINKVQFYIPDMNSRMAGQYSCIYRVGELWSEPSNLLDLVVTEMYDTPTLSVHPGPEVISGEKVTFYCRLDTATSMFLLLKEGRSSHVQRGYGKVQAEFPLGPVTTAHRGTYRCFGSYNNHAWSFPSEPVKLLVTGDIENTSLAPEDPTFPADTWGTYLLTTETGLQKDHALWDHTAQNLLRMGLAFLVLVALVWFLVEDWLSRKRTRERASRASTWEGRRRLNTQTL

Chain of EPH receptor A2 (ephrin type-A receptor 2) (human) (P29317 24-976): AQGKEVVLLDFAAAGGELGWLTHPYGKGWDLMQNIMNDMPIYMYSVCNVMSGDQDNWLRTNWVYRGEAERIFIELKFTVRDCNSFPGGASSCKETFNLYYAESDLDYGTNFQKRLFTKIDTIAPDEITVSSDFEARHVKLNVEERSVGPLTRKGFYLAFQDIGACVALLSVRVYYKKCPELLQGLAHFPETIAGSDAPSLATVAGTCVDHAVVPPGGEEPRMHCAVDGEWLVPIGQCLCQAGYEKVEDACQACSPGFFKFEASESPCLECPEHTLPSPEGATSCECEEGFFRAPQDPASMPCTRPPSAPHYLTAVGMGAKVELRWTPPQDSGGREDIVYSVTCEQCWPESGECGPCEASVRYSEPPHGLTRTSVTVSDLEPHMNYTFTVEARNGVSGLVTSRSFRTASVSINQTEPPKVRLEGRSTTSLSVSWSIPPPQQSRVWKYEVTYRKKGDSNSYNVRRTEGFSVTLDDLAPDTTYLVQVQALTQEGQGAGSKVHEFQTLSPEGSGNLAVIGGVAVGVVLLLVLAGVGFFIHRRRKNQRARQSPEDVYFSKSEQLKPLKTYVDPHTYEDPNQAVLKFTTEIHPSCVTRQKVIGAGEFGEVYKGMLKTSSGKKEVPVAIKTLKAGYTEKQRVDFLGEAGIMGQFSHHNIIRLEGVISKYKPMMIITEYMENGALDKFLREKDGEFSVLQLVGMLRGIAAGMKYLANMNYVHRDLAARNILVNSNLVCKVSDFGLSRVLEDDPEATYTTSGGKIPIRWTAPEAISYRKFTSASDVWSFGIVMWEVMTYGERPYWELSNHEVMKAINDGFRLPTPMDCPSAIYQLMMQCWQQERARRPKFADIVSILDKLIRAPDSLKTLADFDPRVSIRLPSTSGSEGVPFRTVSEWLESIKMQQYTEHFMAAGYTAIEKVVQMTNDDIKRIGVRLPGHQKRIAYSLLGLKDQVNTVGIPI

Molecule: CC(=O)N[C@H]1CSCCC(=O)N2CN3CN(C2)C(=O)CCSC[C@H](NC(=O)[C@H](CC(C)C)NC(=O)[C@H](Cc2ccc(O)cc2)NC(=O)[C@H](CC(=O)O)NC(=O)[C@@H]2CCCN2C(=O)[C@H](CC2CCC2)NC(=O)[C@H](Cc2ccc(O)cc2)NC1=O)C(=O)N[C@H](C)C(=O)N[C@@H](CC(=O)O)C(=O)N[C@@H](CCC(=O)O)C(=O)N[C@@H](Cc1ccc(O)cc1)C(=O)N[C@H](C(=O)N[C@@H](CCCCNC(=O)CCc1cn(CCOCCOCCOCCOCCOCCC(=O)N[C@@H](C)C(=O)N[C@@H](CCCCNC(=N)N)C(=O)N[C@@H](CC(=O)O)C(=O)N[C@H]2CSCCC(=O)N4CN5CN(C4)C(=O)CCSC[C@H](NC(=O)[C@H](CC(C)C)NC(=O)[C@@H]4CCCN4C(=O)[C@H](CC(N)=O)NC(=O)[C@H](C(C)C)NC(=O)[C@H](CC(C)C)NC(=O)[C@@H]4C[C@@H](O)CN4C2=O)C(=O)N[C@@H](CC(C)C)C(=O)N[C@@H](Cc2c[nH]cn2)C(=O)N2CCC[C@H]2C(=O)N[C@H](CC(=O)O)C(=O)N[C@@H](Cc2c[nH]c4ccccc24)C(=O)N[C@@H](CCCCNC(=N)N)C(=O)N[C@H](C(N)=O)CSCCC5=O)nn1)C(N)=O)CSCCC3=O [BCY17225] (I: A[hArg]DC[Hyp]LVNPLCLHP[dD]W[hArg]C-NH2 / II: Ac-CY[Cba]PDYLC[dA]DEYCK-NH2; linker I:4-I:11-I:18, II:1-II:8-II:13 via TATA; linker I:N-II:14 via X2; C-terminus assumed)
- EC50 [1]: 3.6 pM
- effect on tumor cell killing by NK cells, in words [2]: enhanced, dose-dependent effect in tumor cell killing
- TNF-alpha and IFN-gamma production from NK cells [3]: Cytokine production from NK cells was observed

Molecule: CC(=O)N[C@H]1CSCCC(=O)N2CN3CN(C2)C(=O)CCSC[C@H](NC(=O)[C@H](CC(C)C)NC(=O)[C@H](Cc2ccc(O)cc2)NC(=O)[C@H](CC(=O)O)NC(=O)[C@@H]2CCCN2C(=O)[C@H](CC2CCC2)NC(=O)[C@H](Cc2ccc(O)cc2)NC1=O)C(=O)N[C@H](C)C(=O)N[C@@H](CC(=O)O)C(=O)N[C@@H](CCC(=O)O)C(=O)N[C@@H](Cc1ccc(O)cc1)C(=O)N[C@H](C(=O)N[C@@H](CCCCNC(=O)CCc1cn(CCOCCOCCOCCOCCNC(=O)CCOCC(COCCC(=O)NCCOCCOCCOCCOCCn2cc(CCC(=O)NCCCC[C@H](NC(=O)[C@@H]4CSCCC(=O)N5CN6CN(C5)C(=O)CCSC[C@H](NC(=O)[C@H](CC(C)C)NC(=O)[C@H](Cc5ccc(O)cc5)NC(=O)[C@H](CC(=O)O)NC(=O)[C@@H]5CCCN5C(=O)[C@H](CC5CCC5)NC(=O)[C@H](Cc5ccc(O)cc5)NC(=O)[C@@H](NC(C)=O)CSCCC6=O)C(=O)N[C@H](C)C(=O)N[C@@H](CC(=O)O)C(=O)N[C@@H](CCC(=O)O)C(=O)N[C@@H](Cc5ccc(O)cc5)C(=O)N4)C(N)=O)nn2)(COCCC(=O)NCCOCCOCCOCCOCCn2cc(CCC(=O)NCCCC[C@H](NC(=O)[C@@H]4CSCCC(=O)N5CN6CN(C5)C(=O)CCSC[C@H](NC(=O)[C@H](CC(C)C)NC(=O)[C@H](Cc5ccc(O)cc5)NC(=O)[C@H](CC(=O)O)NC(=O)[C@@H]5CCCN5C(=O)[C@H](CC5CCC5)NC(=O)[C@H](Cc5ccc(O)cc5)NC(=O)[C@@H](NC(C)=O)CSCCC6=O)C(=O)N[C@H](C)C(=O)N[C@@H](CC(=O)O)C(=O)N[C@@H](CCC(=O)O)C(=O)N[C@@H](Cc5ccc(O)cc5)C(=O)N4)C(N)=O)nn2)NC(=O)CCOCCOCCOCCOCCOCCC(=O)N[C@@H](C)C(=O)N[C@@H](CCCCNC(=N)N)C(=O)N[C@@H](CC(=O)O)C(=O)N[C@H]2CSCCC(=O)N4CN5CN(C4)C(=O)CCSC[C@H](NC(=O)[C@H](CC(C)C)NC(=O)[C@@H]4CCCN4C(=O)[C@H](CC(N)=O)NC(=O)[C@H](C(C)C)NC(=O)[C@H](CC(C)C)NC(=O)[C@@H]4C[C@@H](O)CN4C2=O)C(=O)N[C@@H](CC(C)C)C(=O)N[C@@H](Cc2c[nH]cn2)C(=O)N2CCC[C@H]2C(=O)N[C@H](CC(=O)O)C(=O)N[C@@H](Cc2c[nH]c4ccccc24)C(=O)N[C@@H](CCCCNC(=N)N)C(=O)N[C@H](C(N)=O)CSCCC5=O)nn1)C(N)=O)CSCCC3=O [BCY21686]
- EC50 [1]: 1.3 pM
- effect on tumor cell killing by NK cells, in words [2]: enhanced, dose-dependent effect in tumor cell killing
- TNF-alpha and IFN-gamma production from NK cells [3]: Cytokine production from NK cells was observed

Molecule: BCY18048: EphA2 specific peptide BCY9594 linked to two NKp46 specific peptides (BCY17662) via N-(acid-PEG3)-N-bis(PEG3-azide) linker (peptide 1 A[hArg]DC[Hyp]LVNPLCLHP[dD]W[hArg]C; peptide 2 ACYLPDYLC[dK](Pent4ynoyl)DEYCA; linker I:4-I:11-I:18, II:2-II:9-II:14 via TATA; also: chain 1 N-terminus and chain 2 D-Lys(PYA) joined through N-(acid-PEG3)-N-bis(PEG3-azide) linker, two copies of chain 2)
- secretion of IFN-gamma and TNF-alpha by NK cells ([3]; 10 nM construct, ELISA, FIG. 12): induced secretion of IFN-gamma and TNF-alpha

Molecule: BCY21687: EphA2 specific peptide BCY9594 linked to three NKp46 specific peptides (BCY17224) via Methane-N-(PEG10-acid)-Tri(MeOPr-amide-PEG10-azide) linker (peptide 1 A[hArg]DC[Hyp]LVNPLCLHP[dD]W[hArg]C; peptide 2 Ac-CY[Cba]PDYLC[dA]DEYCK(Pent4ynoyl); linker I:4-I:11-I:18, II:1-II:8-II:13 via TATA; also: chain 1 N-terminus and chain 2 K(PYA) joined through Methane-N-(PEG10-acid)-Tri(MeOPr-amide-PEG10-azide) linker, three copies of chain 2)
- TNF-alpha and IFN-gamma production from NK cells [3]: Cytokine production from NK cells was observed

B1: heterotandem bicyclic peptide complex BCY15923 (peptide)
peptide 1: A[hArg]DC[Hyp]LVNPLCLHP[dD]W[hArg]C
peptide 2: ACDLTTHNCQWGICAK(Pent4ynoyl)
modifications: linker I:4-I:11-I:18, II:2-II:9-II:14 via TATA; also: EphA2:NKp46 1:2, two copies of chain 2 on the linker, X5, X17: HyP or HArg, linker at chain B 16 to a chain's N-terminus via N-(acid-PEG3)-N-bis(PEG3-azide) linker
- EC50, NK cytotoxicity assay (HT1080-luc luminescence) [4]: 44 pM
- EC50, NK cytotoxicity assay (HT1080-luc luminescence) [5]: 44 pM

B2: heterotandem bicyclic peptide complex BCY17226 (peptide)
peptide 1: AXDCXLVNPLCLHPDWXC
peptide 2: CYXPDYLCADEYCK
modifications: BCY17224: N-terminal acetyl; Cba (beta-cyclobutylalanine) and dA (D-Ala) within SEQ ID NO: 5; C-terminal Lys(PYA) joined to the linker azide; Ci, Cii, Ciii cyclised on TATA scaffold; BCY9594: HArg (homoarginine) as 2nd residue of the N-terminal extension; HyP, dD and HArg within SEQ ID NO: 2; Ci, Cii, Ciii cyclised on TATA scaffold; N-terminus joined to the linker
- EC50, NK cytotoxicity assay (HT1080-luc luminescence) [4]: 6.1 pM
